US8530433B2, “Use of icariside II in manufacture of products for preventing or treating male or female sexual dysfunction” (Bjo-Biomed Ltd, priority 2008, dated 2013)

Assays:
[1] = system: PAE-EGFR cells; experiment: NOS enzyme activity in EGFR expressing PAE-EGFR cells, NOS kit; format: cell-based, porcine; conditions: for NOS enzyme activity: PAE-EGFR cells
Method: Porcine vascular endothelial cells (PAE) were provided by the Institute of Urology, Peking University. The determination of the effect of icariside II on NOS activity in the endothelial cell is conducted using NOS kit (Cayman Chemical company, Ann Arbor, Mich., USA). Vascular endothelial cells (PAE) were treated with different concentrations of icariside II (0, 10^−9, 10^−8, 10^−7, 10^−6, 10^−5 and 10^−4 M) (sildenafil as the control group). 180 μl lysate was added into each culture well. 20 μl supernatant was used for protein concentration assay with BCA protein kit. And, 100 μl supernatant was analyzed for NOS activity with NOS kit (Cayman Chemical company, Ann Arbor, Mich., USA). NOS activity (units/mg)=[(valueNos-measure−valueNOS-blank)÷(38.3×10^6)]×[(2.15+supernatant volume)÷(15×supernatant volume)]÷[protein concentration of each Petri dish]. 1) The EGFR gene was subcloned into pGFP plasmid to construct pGFP-EGFR expression vector. With Liposome transfection reagent (Qigen), pGFP-EGFR was transfected into PAE cells. After the selection with 1800 μg/ml of G418, a single cell clone was selected. Western blot confirms the stable expression of EGFR in the PAE-EGFR cells.

[2] = system: PAE-EGFR cells; experiment: eNOS protein expression by Western blot in PAE-EGFR cells; format: cell-based, porcine; conditions: 12.5 μM, 24 hr; for eNOS protein expression (normalized to β-actin): PAE-EGFR cells; for eNOS expression levels: PAE-EGFR stable strains
Method: 1) The EGFR gene was subcloned into pGFP plasmid to construct pGFP-EGFR expression vector. With Liposome transfection reagent (Qigen), pGFP-EGFR was transfected into PAE cells. After the selection with 1800 μg/ml of G418, a single cell clone was selected. Western blot confirms the stable expression of EGFR in the PAE-EGFR cells. 2) 5×10^5 of the PAE cells and PAE-EGFR cells were seeded into 35 mm Petri dishes plate in quadruplicate. After 12 hours, PAE and PAE-EGFR cells was treated with 12.5 μM icariside II and sildenafil for 24 hr, respectively. Then the treated PAE and PAE-EGFR cells were lysed with RIPA buffer and subjected to 8% SDS-PAGE electrophoresis. eNOS protein expression was detect by Western blot. After development with super ECL luminescence substrate, the band was analyzed with a Optical density scanner. The results were analyzed by normalizing to β-actin. 3) 5×10^5 of the PAE cells and PAE-EGFR cells were seeded into 35 mm Petri dishes plate in quadruplicate. After 12 hours, PAE and PAE-EGFR cells was treated with 12.5 μM icariside II and sildenafil for 24 hr, respectively, in the presence or absence with 100 μg/ml of EGF. Then the treated PAE and PAE-EGFR cells were lysed with RIPA buffer and subjected to 8% SDS-PAGE electrophoresis. eNOS protein expression was detect by Western blot. After development with super ECL substrate, the band was analyzed with an Optical density scanner. The resulted results were analyzed by normalizing to β-actin.

[3] = system: Primary human corpus cavernosum smooth muscle cells (CCSMCs); experiment: NOS activity in corpus cavernosum smooth muscle cells; format: cell-based
Method: Primary human corpus cavernosum smooth muscle cells ([…]) were provided by the Andrology Center of Peking University. The […] of the third passage were cultured in six well plates for two days. Then the cells were treated with icariside II or the sildenafil at a concentration of 0, 10^-9, 10^-8, 10^-7, 10^-6, 10^-5 M; or treated with icariside II (0, 10^-9, 10^-8, 10^-7, 10^-6, 10^-5 M) in the presence or absence of LNNA (4×10^-4 M). The control group was cultured with DMEM only. After 24 hours, the cells were washed three times and 180 μl lysis buffer was added into each well; 60 μl cell suspension was taken for protein concentration assay with BCA protein kit; 100 μl cell suspension was taken for NOS activity test. NOS activity (units/mg protein)=[(valueNOS-measure-valueNOS-blank)÷(38.3×10^6)]×[(2.15+supernatant volume)÷(15×S supernatant volume)]÷[protein concentration in each well].

[4] = system: Primary human corpus cavernosum smooth muscle cells (CCSMCs); experiment: cGMP/cAMP biosynthesis in corpus cavernosum smooth muscle cells; format: cell-based; conditions: 4 hours; for effect on the cAMP concentration: P>0.05
Method: Primary human corpus cavernosum smooth muscle cells ([…]) were provided by the Andrology Center of Peking University. The […] of the third passage were cultured in six plates for two days. Then the cells were treated with icariside II or the sildenafil at the concentration of 0, 10^-9, 10^-8, 10^-7, 10^-6, 10^-5, M for 4 hours; or treated with icariside II or the sildenafil at the concentration of 0, 10^-9, 10^-8, 10^-7, 10^-6, 10^-5, 10^-4 M for 4 hours followed by a treatment with 10^-5 M of SNP for 30 min. The control group was cultured with DMEM only. Then to each well was added 0.4 mL 0.1 M HCl and incubated at room temperature for 20 minutes. Then the lysed cells are harvested. The cell suspension was collected in centrifuge tubes and centrifuged at 1000 g for 10 minutes; 60 μl cell suspension was taken for protein concentration assay with the BCA protein kit, and 100 μl cell suspension was taken for cGMP or cAMP concentration test. The concentration of cGMP [pmol/(mg prot·min)]=[cGMP or cAMP concentration×supernatant volume]÷reaction time×protein concentration in each well×supernatant volume].

[5] = system: Human corpus cavernosum smooth muscle cells; experiment: RT-PCR mRNA expression of NOS isoforms and PDE5a in corpus cavernosum smooth muscle cells; format: cell-based; conditions: 12.5 μM; 1 day and 2 days treatment
Method: Human corpus cavernosum smooth muscle cells were grown in 60 mm Petri dishes. […] Then the treated CCSMCs were lysed with Trizol and total RNA was extracted and reverse transcribed into cDNA. PCR amplification was carried out using eNOS, iNOS, nNOS and PDE5a specific primers and the specific PCR products represent the mRNA levels.

[6] = system: Corpus cavernosum smooth muscle cells; experiment: Western blot protein expression of NOS isoforms, PDE5, PKG and sGC in corpus cavernosum smooth muscle cells; format: cell-based, human; conditions: 12.5 μM; 1 and 2 days
Method: Corpus cavernosum smooth muscle cells were grown in 60 mm Petri dishes. […] Then the treated CCSMCs were lysed with RIPA buffer and subjected to 8% SDS-PAGE electrophosis. Expression of eNOS and other proteins were detected by Western blot. After exposing with super ECL luminescence substrate, the band was analyzed with a Optical density scanner. The resulted results were analyzed by normalizing to β-actin.

Molecule | NOS enzyme activity ([1]; 10^−5 M) [u/mg] | NOS enzyme activity ([1]; 10^−6 M) [u/mg] | NOS enzyme activity ([1]; 10^−7 M) [u/mg] | NOS enzyme activity ([1]; 10^−8 M) [u/mg] | NOS enzyme activity ([1]; 10^−9 M) [u/mg] | eNOS protein expression (normalized to β-actin) [2] | eNOS expression levels [2] | effect on the cAMP concentration [4] | PDE5a mRNA level [5] | eNOS mRNA level [5] | iNOS mRNA level [5] | nNOS mRNA level [5] | PDE5a protein expression [6] | PKG protein expression [6] | eNOS protein expression [6] | iNOS protein expression [6] | nNOS protein expression [6] | sGC protein expression [6] | further results
CCCc1nn(C)c2c(=O)[nH]c(-c3cc(S(=O)(=O)N4CCN(C)CC4)ccc3OCC)nc12 [Sildenafil, sildenafil, reference compound] | 8.99 ± 0.87 | 8.4 ± 0.84 | 8.53 ± 0.84 | 8.37 ± 0.82 | 8.48 ± 0.85 | 1.38 ± 0.013 | 1.12 | no significant effect | significantly reduced | not significantly changed | slightly increased after 2 days treatment | not significantly changed | decrease | increase | no effect | no effect | no effect | no effect | effect on NOS activity in CCSMCs ([3]; 10^−9 to 10^−5 M, 24 hours): no significant difference
icariside II | 22.74 ± 2.27 | 23.91 ± 2.36 | 22.79 ± 2.45 | 15.37 ± 1.51 | 11.72 ± 1.21 | 2.08 ± 0.02 | 1.16 | no significant effect | significantly decreased | not changed | slightly increased | significantly increased | significantly decreased | significantly increased | increased at 2 days | slightly increased | significantly increased | significantly increased | NOS activity in PAE-EGFR cells higher than the activity in PAE cells ([1]; 10^−8 M): 4.66 u/mg; NOS enzyme activity ([1]; 10^−8 M, listed as icariside II): 15.37±1.49 u/mg; NOS activity (peak) ([3]; 10^−6 M, 24 hours, untreated 0.46 units/mg): 4.19 units/mg; NOS activity ([3]; 10^−8 M, 24 hours, untreated 0.46 units/mg): 1.59 units/mg; peak value of NOS activity in presence of LNNA ([3]; with LNNA 4×10^−4 M): 2.67 unit/mg; EC50 ([4]; in presence of 10^−5 M SNP, read-out: EC50 of cGMP concentration increase): 1020 nM
